Test results: article PMC3479135, “Crystal Structures of Bovine CD1d Reveal Altered αGalCer Presentation and a Restricted A’ Pocket Unable to Bind Long-Chain Glycolipids” (PLoS ONE, 2012)

Biological target: T1, boCD1d (bovine CD1d ectodomain with boβ2M) (Bos taurus, UniProt A1L565)
T1 construct: heavy-chain ectodomain (α1-α3), endogenous leader replaced by boCD1b3 leader, C-terminal hexa-His tag, no Fc; co-expressed with bovine β2m in baculovirus/insect cells; non-covalent heterodimer; N-glycosylated at Asn20 and Asn42; with Beta-2-microglobulin
T1 sequence (A1L565 129-405): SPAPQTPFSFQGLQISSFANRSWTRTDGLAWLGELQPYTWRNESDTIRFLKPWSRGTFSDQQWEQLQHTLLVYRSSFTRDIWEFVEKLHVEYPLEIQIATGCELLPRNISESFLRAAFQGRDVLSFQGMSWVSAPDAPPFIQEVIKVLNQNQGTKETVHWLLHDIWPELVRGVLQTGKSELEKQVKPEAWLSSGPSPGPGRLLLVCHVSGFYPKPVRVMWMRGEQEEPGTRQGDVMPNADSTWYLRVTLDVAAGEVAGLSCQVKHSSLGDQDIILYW
T1 sequence (P01888 21-118 partner): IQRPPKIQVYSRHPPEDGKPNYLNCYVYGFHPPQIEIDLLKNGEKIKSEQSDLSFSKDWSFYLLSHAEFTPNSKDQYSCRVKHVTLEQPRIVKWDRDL
Assay: X-ray crystal structure, […] Å; native IEF gel shift
Type: binding
Settings: crystallised in 20% PEG 3350, 0.2 M sodium formate; IEF loading overnight at room temperature, 100 mM Tris-HCl pH 7, no Tween 20; A' and F' pockets

Compound: CCCCCCCCCCCCC/C=C/[C@@H](O)[C@H](CO[C@@H]1O[C@H](COS(=O)(=O)O)[C@H](O)[C@H](OS(=O)(=O)O)[C@H]1O)NC(=O)CCCCCCCCCCC [compound 2, C12∶0-di-sulfatide]
- X-ray crystal structure, 2.9 Å; native IEF gel shift: we crystallized boCD1d in complex with synthetic C12∶0-di-sulfatide (di-SLF)
